Experiments:
[1] = target: T1, PRMT5 (Homo sapiens, UniProt O14744); test: Steady-state kinetic analysis of PRMT5 inhibition (time-dependent inhibition assay); assay type: biochemical
T1 construct: His6; made in house; host or cells: E. coli BL21(ED3) [sic]
Procedure: Different amounts of compound C2 or C5 were present in the final methylation reaction mixtures with 1.2 μg of PRMT5, 5 μM AdoMet, 2 μCi of H^3-AdoMet and various concentrations of SmD3. After a 10-, 20- or 30-min incubation at 30 °C or no incubation, the reaction mixtures were spread onto DE81 chromatography paper discs and the amounts of methylated products were quantified by liquid scintillation. Amounts (counts per minute [cpm]) of methylated products and incubation time (minutes) were plotted and reaction velocity (cpm per minute) was deduced.
To understand the mechanism of inhibition of identified compounds, we analyzed the kinetic pattern of inhibition using steady-state enzymatic measurements. The velocities of PRMT5 methylation of SmD3 were measured at several selected concentrations of compounds C2 and C5 over a range of SmD3 concentrations. Plotted in the double-reciprocal format with 1/velocity versus 1/[SmD3]
Fig 5 Steady-state kinetic analysis of PRMT5 inhibition by compounds C2 and C5. Double-reciprocal plot of reaction velocities (cpm per minute) versus concentrations of SmD3. Methylation reaction mixtures contained various concentrations of C2 (left) or C5 (right), various concentrations of SmD3, 1.2 μg of PRMT5 and 5 μM AdoMet. The mixtures were incubated for different times and the amounts of methylated products were quantified using DE81 paper and liquid scintillation. Reaction velocity was calculated as H^3 incorporation (cpm) into SmD3 per minute.

[2] = tested on: PRMT5 F225M; test: Radioactive methyltransferase assay, mutant PRMT5; assay type: biochemical, human; conditions: Phe225 to Met
Procedure: Methylation reactions were performed as previously described with a few modifications. Reaction mixtures (40 μl) containing 1.2 μg of PRMT5, 98 ng of PRMT1 or 98 ng of PRMT3; 2 μg of SmD3 or histones; 1 μCi of S-[methyl-^3H]adenosylmethionine (H^3-AdoMet; PerkinElmer); and 5 μM AdoMet were incubated in 50 mM Tris-HCl (pH 7.5)–1 mM EGTA–1 mM EDTA at 30°C for 2 h. Reaction mixtures (20 μl) were boiled in 5 μl of 5x SDS sample buffer and separated on a 15% polyacrylamide gel. Gels were fixed for 30 min in 40% methanol–10% acetic acid, incubated in 20 ml of Amplify (Amersham Life Science) for 10 min, dried and exposed to X-ray film at -80°C. IC50 was calculated by linear regression analysis of percent inhibition. The other half (20 μl) of each reaction mixture was spread onto DE81 chromatography paper discs (Whatman). The paper discs were washed 4 times with 50 mM NaHCO3 and dried. The amounts of methylated products were quantified by liquid scintillation.
The inhibitory activity of the compounds may stem from this interaction. To test this possibility, we conducted site-directed mutagenesis to mutate Phe225 in human PRMT5 (corresponding to Phe379 in the C. elegans PRMT5) to Met. The mutated PRMT5 was expressed in bacteria and purified by Ni-nitrilotriacetic acid (Ni-NTA) affinity chromatography (Fig 4A). The activity of the mutant PRMT5 was examined by the radioactive methyltransferase assay. […] The IC50 values for the mutant PRMT5 increased from 4.3 to 183 folds higher than those for the wild type PRMT5 (Fig 4D). […] The results also can help explain the specificity of the compounds to PRMT5. However, the contribution of this interaction to inhibition varies among the compounds. For example, compound C2 interacts with three amino acid residues (Lys451, Glu450, and Phe379) (Fig 3A) with the mutation of Phe to Met resulting in a 50-times higher IC50 (Fig 4C and 4D).
Fig 4 The conserved phenylalanine residue in PRMT5 is critical for inhibition by the five compounds. A, DS-PAGE of recombinant wild type (WT) and F225M mutant (MT) PRMT5. The gel was stained with Coomassie Brilliant Blue R250. A band corresponding to an unknown bacterial protein is indicated (star). B, The F225M mutation increased the methytransferase activity of PRMT5. In vitro methylation reactions were performed with recombinant wild type (lanes 2–4) or mutant (lanes 5–7) PRMT5 (1.2, 2.4 or 4.8 μg) and SmD3 (2 μg) as the substrate. C, The F225M mutation in PRMT5 decreased inhibition of arginine methylation by the compounds. The reaction mixture contained SmD3 (2 μg); wild type or mutant PRMT5 (1.2 μg); and 1, 10 or 100 μM compounds as indicated. D, The F225M mutation in PRMT5 […] of the compounds, as determined by quantitation and analysis of methylation assay results. TEXT PRINTED IN THE PICTURE: (D) C2: IC50 (μM) PRMT5: 0.1; IC50 (μM) PRMT5 F225M: 5.0 | (D) C5: IC50 (μM) PRMT5: 0.8; IC50 (μM) PRMT5 F225M: 3.5 | (D) C6: IC50 (μM) PRMT5: 0.5; IC50 (μM) PRMT5 F225M: 7.0 | (D) C9: IC50 (μM) PRMT5: 6.0; IC50 (μM) PRMT5 F225M: 45.0 | (D) C11: IC50 (μM) PRMT5: 0.3; IC50 (μM) PRMT5 F225M: 55.0

[3] = Toxicity observed after intraperitoneal injection; assay type: in vivo, BALB/c mice; conditions: 100 mg/kg
Procedure: The obtained 3 compounds (C5, C9, and C11) have characteristics of Lipinski’s rule-of-five, which defines four physicochemical parameters found in a set of active drugs which made them into phase II clinical trials. We chose one compound (C9) to analyze its pharmacokinetic parameters in the mouse. BALB/c mice were randomized and administrated compound C9 (dissolved in 5% DMSO and 0.5% Tween 80) at dosages of 25, 50 and 100 mg/kg by intraperitoneal (I.P.) injection. Mice were sacrificed and blood samples were collected at different time points after administration of compounds. The compound concentrations in plasma samples were measured (S1 Fig). […] However, we observed the high toxicity of the compound in the mouse at the dosage of 100 mg/kg.

T1 sequence (O14744 whole entry): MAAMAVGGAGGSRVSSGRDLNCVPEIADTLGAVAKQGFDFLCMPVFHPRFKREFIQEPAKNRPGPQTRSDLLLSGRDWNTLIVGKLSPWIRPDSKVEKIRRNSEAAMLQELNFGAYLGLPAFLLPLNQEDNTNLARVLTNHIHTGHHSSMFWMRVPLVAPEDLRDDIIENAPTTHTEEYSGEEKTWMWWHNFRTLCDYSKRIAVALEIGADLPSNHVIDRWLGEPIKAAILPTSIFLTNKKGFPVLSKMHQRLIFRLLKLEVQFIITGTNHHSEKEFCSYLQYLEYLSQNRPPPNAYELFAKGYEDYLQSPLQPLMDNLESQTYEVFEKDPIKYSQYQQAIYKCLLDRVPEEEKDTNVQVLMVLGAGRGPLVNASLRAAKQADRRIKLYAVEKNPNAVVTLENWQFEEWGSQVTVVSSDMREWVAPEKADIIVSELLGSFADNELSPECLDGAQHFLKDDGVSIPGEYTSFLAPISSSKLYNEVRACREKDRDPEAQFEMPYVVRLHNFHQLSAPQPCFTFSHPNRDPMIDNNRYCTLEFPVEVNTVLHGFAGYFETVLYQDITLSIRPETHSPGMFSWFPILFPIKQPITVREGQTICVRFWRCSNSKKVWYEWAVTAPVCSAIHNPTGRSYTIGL

Row | SMILES | mode of inhibition with regard to SAM [1] | mode of inhibition with regard to the SmD3 substrate ([1]; double-reciprocal plot) | increase of IC50 for mutant PRMT5 over wild type PRMT5 [2] [fold] | toxicity in the mouse [3]
1 | CCn1c(=O)[nH]c2cc(C(=O)Nc3ccc(OC)cc3)ccc2c1=O [Compound C5] | not competitive inhibitors | competitive inhibitors | 4.3 | –
2 | COc1ccc(Nc2ncnc3c2cnn3Cc2ccc(C)cc2)cc1 [Compound C9] | – | – | – | high toxicity
